This is an account of results in ChEMBL document CHEMBL1148168, “The structures of aplysinamisines I, II, and III; new bromotyrosine-derived alkaloids from the Caribbean sponge Aplysina cauliformis” (J Nat Prod, 1993).

In brackets after ≈: the same amount, converted by molar mass. Activity calls are given as the source filed them. The rule behind the calls is not given here. Some results are limits rather than exact numbers.

One assay relates to Staphylococcus aureus. In words: Antimicrobial activity against Staphylococcus aureus at 50 to 100 ug/disk. It is filed as functional, organism-based.
A further assay concerns Pseudomonas aeruginosa. In words: Antimicrobial activity against Pseudomonas aeruginosa at 50 to 100 ug/disk. It is filed as functional, organism-based.
Another assay deals with Escherichia coli. In words: Antimicrobial activity against Escherichia coli at 50 to 100 ug/disk. It is filed as functional, organism-based.
A further assay deals with MCF7. The assay can be described thus: Cytotoxicity against human MCF7 cells. It is filed as functional, cell-based.
A further assay deals with CCRF-CEM. In words: Cytotoxicity against human CCRF-CEM cells. It is filed as functional, cell-based.
Another assay relates to HCT-116. In words: Cytotoxicity against human HCT116 cells. It is filed as functional, cell-based.

`COC1=C(Br)[C@H](O)[C@@]2(C=C1Br)CC(C(=O)NCCCOc1c(Br)cc(C(O)CNC(C)=O)cc1Br)=NO2` (some centres not stated) [APLYSINAMISINE III]: the result in the assay on Staphylococcus aureus, in the assay on Pseudomonas aeruginosa and with Escherichia coli was Active. The IC50 (as a rule, the point on the concentration scale where inhibition reaches its midpoint) in the assay on MCF7 turned out to be 30 µg/mL (≈ 38.7 µM); with CCRF-CEM it was 6 µg/mL (≈ 7.74 µM); in the assay with HCT-116 it was 10 µg/mL (≈ 12.9 µM).

As for `COC1=C(Br)[C@H](O)[C@@]2(C=C1Br)CC(C(=O)NCCCCCNC(=N)N)=NO2` [APLYSINAMISINE II], the outcome with Staphylococcus aureus, in the assay on Pseudomonas aeruginosa and in the assay on Escherichia coli was Active. Further, the concentration for half-maximal inhibition (IC50) in the assay on MCF7 was > 50 µg/mL; in the assay with CCRF-CEM, > 50 µg/mL; in the assay on HCT-116, 10 µg/mL (≈ 19.6 µM).

On to `COC1=C(Br)[C@H](O)[C@@]2(C=C1Br)CC(C(=O)NC/C=C\c1c[nH]c(N)n1)=NO2` [APLYSINAMISINE I], for which the result in the assay with Staphylococcus aureus, with Pseudomonas aeruginosa and with Escherichia coli was Active. Besides, the 50% inhibitory concentration (IC50) with MCF7 and with CCRF-CEM was > 50 µg/mL in each case.
